What all share (assay type): cell-based
In one assay the test system is SW480 (colon cancer). Put plainly: Antiproliferative activity (CCK-8 cell viability), SW480. As to conditions: Homo sapiens, 72 h, read-out: Antiproliferative activity in cancerous cells, SW480 (inhibition of cell growth); for inhibition at 3.3 µM: Compound concentration: 3.3 μM; for inhibition at 10 µM: Compound concentration: 10 μM; for inhibition at 30 µM: Compound concentration: 30 μM. The gist of the method:
(§1)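 Cells were seeded at 2,000-5,000/well (HeLa in MEM, HepG2 and SW480 in DMEM, A549 in F-12K, all with 10% FBS) and treated with compound at 3.3, 10 or 30 μM for 72 h at 37° C. CCK-8 was added for 4 h, absorbance was read at 450 nm, and viability was expressed relative to DMSO-treated wells.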

A further assay concerns HepG2 (liver cancer). Put plainly: Antiproliferative activity (CCK-8 cell viability), HepG2. As to conditions: Homo sapiens, 72 h, read-out: Antiproliferative activity in cancerous cells, HepG2 (inhibition of cell growth); for inhibition at 3.3 µM: Compound concentration: 3.3 μM; for inhibition at 10 µM: Compound concentration: 10 μM; for inhibition at 30 µM: Compound concentration: 30 μM. The gist of the method:
as §1

Assay [1] has as its system B16F10 (malignant melanoma). Briefly: Antiproliferative activity (CCK-8 cell viability), B16F10. Particulars: Mus musculus, 72 h, read-out: Antiproliferative activity in cancerous cells, B16F10 (inhibition of cell growth); for inhibition at 3.3 µM: B16-F10, Compound concentration: 3.3 μM; for inhibition at 10 µM: B16-F10, Compound concentration: 10 μM; for inhibition at 30 µM: B16-F10, Compound concentration: 30 μM. The method in brief:
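Attached B16F10 cells in 96-well plates were incubated with compound at 37° C for 72 h, followed by 10 μL CCK-8 reagent per well and a further 4 h incubation. A multi-well plate reader measured absorbance at 450 nm. Percent viability across replicates was calculated against DMSO vehicle-treated cells.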

The subject of assay [2] is A431 (epidermoid carcinoma). Briefly: Antiproliferative activity (CCK-8 cell viability), A431. As to conditions: Homo sapiens, 72 h, read-out: Antiproliferative activity in cancerous cells, A431 (inhibition of cell growth); for inhibition at 3.3 µM: A-431, Compound concentration: 3.3 μM; for inhibition at 10 µM: A-431, Compound concentration: 10 μM; for inhibition at 30 µM: A-431, Compound concentration: 30 μM. The gist of the method: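 Cell viability of compound-treated A431 cells was measured with a Cell Counting Kit-8. Each well received 10 μL of CCK-8 after 72 h of compound exposure, followed by 4 h incubation at 37° C. and a 450 nm plate-reader measurement. Percent viability was calculated relative to DMSO controls across replicates.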

Assay [3] deals with MDA-MB-231 (breast cancer). Put plainly: Antiproliferative activity (CCK-8 cell viability), MDA-MB-231. As to conditions: Homo sapiens, 72 h, read-out: Antiproliferative activity in cancerous cells, MDA-MB-231 (inhibition of cell growth); for inhibition at 3.3 µM: Compound concentration: 3.3 μM; for inhibition at 10 µM: Compound concentration: 10 μM; for inhibition at 30 µM: Compound concentration: 30 μM. The method in brief:
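In this CCK-8 viability assay, MDA-MB-231 cells maintained in Dulbecco's modified Eagle's medium containing 10% fetal bovine serum were placed in 96-well plates (2,000-5,000 cells/well) and treated with compound for 72 h at 37° C. A 4 h incubation with 10 μL CCK-8 followed, plates were read at 450 nm, and viability was expressed against DMSO vehicle wells across replicates.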

Assay [4] deals with A549 (lung adenocarcinoma). Put plainly: Antiproliferative activity (CCK-8 cell viability), A549. As to conditions: Homo sapiens, 72 h, read-out: Antiproliferative activity in cancerous cells, A549 (inhibition of cell growth); for inhibition at 3.3 µM: Compound concentration: 3.3 μM; for inhibition at 10 µM: Compound concentration: 10 μM; for inhibition at 30 µM: Compound concentration: 30 μM. The method in brief: as §1

Another assay concerns HeLa (cervical cancer). Briefly: Antiproliferative activity (CCK-8 cell viability), HeLa. Particulars: Homo sapiens, 72 h, read-out: Antiproliferative activity in cancerous cells, HELA (inhibition of cell growth); for inhibition at 3.3 µM: Compound concentration: 3.3 μM; for inhibition at 10 µM: Compound concentration: 10 μM; for inhibition at 30 µM: Compound concentration: 30 μM. The gist of the method: as §1

Assay [5] deals with alpha-smooth muscle actin (α-SMA). Briefly: Inhibition of TGF-β induced expression of alpha-smooth muscle actin (α-SMA) in CFSC cells (western blot). Particulars: compound at 10 μM, TGF-β (10 ng/mL), 24 hours, band intensity vs TGF-β only. The method in brief:
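CFSC hepatic stellate cells in serum-free DMEM treated 24 h at 37 °C with compound at 10 μM plus TGF-β (10 ng/mL). α-SMA measured by Western blot with β-actin, ECL detection, densitometry. Percent inhibition is decrease in band intensity versus TGF-β-only cells.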
On the technique in general: A western blot detects proteins with antibodies after separation by electrophoresis.

Broadly, the inhibition is the relative decrease from the control value, in per cent.

As for `CC1=C(CC(=O)O)c2c(F)cc(F)cc2/C1=C\c1ccc(C(C)C)cc1` [D8, (Z)-2-(4,6-Difluoro-1-(4-isopropylbenzylidene)-2-methyl-1H-inden-3-yl)acetic acid], the inhibition at 3.3 µM in the assay on SW480 (colon cancer) was less than 30%; with HepG2 (liver cancer), less than 30%; in assay [1] it was less than 30%; in assay [2] it was less than 30%; in assay [3] it was 30 to 50%; in assay [4], less than 30%. Further, the inhibition at 3.3 µM in the assay with HeLa (cervical cancer) is no less than 50%. For the same compound, the inhibition at 10 µM with SW480 (colon cancer) was less than 30%; in the assay with HepG2 (liver cancer) it was less than 30%; in assay [1] it was no less than 50%; in assay [2] it was less than 30%; in assay [3] it was no less than 50%; in assay [4], 30 to 50%. Also, the figures for the inhibition at 10 µM (with HeLa (cervical cancer); in assay [5]) were no less than 50% and 50 to 80%, respectively. Further, the inhibition at 30 µM (with SW480 (colon cancer); in the assay with HepG2 (liver cancer); in assay [1]; in assay [2]; in assay [3]; in assay [4]) was no less than 50% each time. Moreover, in the assay on HeLa (cervical cancer), the inhibition at 30 µM was no less than 50%.

As for `COc1ccc(Oc2ccc(/C=C3\C(C)=C(CC(=O)O)c4cc(F)ccc43)cn2)cc1` [E1, (E)-2-(5-Fluoro-1-((6-(4-methoxyphenoxy)pyridin-3-yl)methylene)-2-methyl-1H-inden-3-yl)acetic acid], the inhibition at 3.3 µM (in the assay on SW480 (colon cancer); in the assay with HepG2 (liver cancer); in assay [1]; in assay [2]; in assay [3]; in assay [4]) was less than 30% throughout. In addition, the inhibition at 3.3 µM in the assay on HeLa (cervical cancer) was less than 30%. Besides, the inhibition at 10 µM in the assay on SW480 (colon cancer) is less than 30%; in the assay with HepG2 (liver cancer), less than 30%; in assay [1], less than 30%; in assay [2], less than 30%; in assay [3] it was less than 30%; in assay [4], 30 to 50%. The inhibition at 10 µM (with HeLa (cervical cancer); in assay [5]) was less than 30% each time. Further, the inhibition at 30 µM is 30 to 50% in the assay on SW480 (colon cancer); 30 to 50% in the assay on HepG2 (liver cancer); 30 to 50% in assay [1]; less than 30% in assay [2]; no less than 50% in assay [3]; 30 to 50% in assay [4]. For the same compound, the inhibition at 30 µM with HeLa (cervical cancer) fell in the range of 30 to 50%.

Take `CC1=C(CC(=O)O)c2cc(F)cc(F)c2/C1=C/c1ccc(COc2ccccc2)cc1` [E2, (E)-2-(5,7-Difluoro-2-methyl-1-(4-(phenoxymethyl)benzylidene)-1H-inden-3-yl)-acetic acid]: the inhibition at 3.3 µM is no less than 50% in the assay with SW480 (colon cancer); 30 to 50% in the assay on HepG2 (liver cancer); no less than 50% in assay [1]; 30 to 50% in assay [2]; less than 30% in assay [3]; less than 30% in assay [4]. For the same compound, the inhibition at 3.3 µM in the assay on HeLa (cervical cancer) is no less than 50%. Besides, the inhibition at 10 µM in the assay with SW480 (colon cancer) is no less than 50%; with HepG2 (liver cancer), no less than 50%; in assay [1], no less than 50%; in assay [2], no less than 50%; in assay [3] it was no less than 50%; in assay [4], 30 to 50%. For the same compound, the inhibition at 10 µM with HeLa (cervical cancer) was no less than 50%; in assay [5], 50 to 80%. Moreover, the inhibition at 30 µM (in the assay with SW480 (colon cancer); with HepG2 (liver cancer); in assay [1]; in assay [2]; in assay [3]; in assay [4]) was no less than 50% each time. In addition, the inhibition at 30 µM in the assay on HeLa (cervical cancer) is no less than 50%.

For `CC1=C(CC(=O)O)c2ccc(F)c(F)c2/C1=C/c1ccc(Oc2ccc(F)cc2)cc1` [E3, (E)-2-(6,7-Difluoro-1-(4-(4-fluorophenoxy)benzylidene)-2-methyl-1H-inden-3-yl)acetic acid], the inhibition at 3.3 µM with SW480 (colon cancer) was 30 to 50%; in the assay on HepG2 (liver cancer), no less than 50%; in assay [1] it was 30 to 50%; in assay [2] it was no less than 50%; in assay [3], no less than 50%; in assay [4], 30 to 50%. Also, the inhibition at 3.3 µM with HeLa (cervical cancer) is no less than 50%. In addition, the inhibition at 10 µM (with SW480 (colon cancer); in the assay with HepG2 (liver cancer); in assay [1]; in assay [2]; in assay [3]; in assay [4]) was no less than 50% each time. The inhibition at 10 µM with HeLa (cervical cancer) was no less than 50%; in assay [5], greater than 80%. Further, the inhibition at 30 µM (with SW480 (colon cancer); in the assay on HepG2 (liver cancer); in assay [1]; in assay [2]; in assay [3]; in assay [4]) was no less than 50% in each case. For the same compound, the inhibition at 30 µM in the assay on HeLa (cervical cancer) was no less than 50%.

For `CC1=C(CC(=O)O)c2ccc(F)c(F)c2/C1=C/c1cccc(Oc2ccccc2)c1` [E4, (E)-2-(6,7-Difluoro-2-methyl-1-(3-phenoxybenzylidene)-1H-inden-3-yl)acetic acid], the inhibition at 3.3 µM (in the assay with SW480 (colon cancer); in the assay with HepG2 (liver cancer); in assay [1]; in assay [2]; in assay [3]; in assay [4]) was less than 30% throughout. In addition, in the assay on HeLa (cervical cancer), the inhibition at 3.3 µM was in the range of 30 to 50%. Further, the inhibition at 10 µM was less than 30% in the assay with SW480 (colon cancer); 30 to 50% with HepG2 (liver cancer); no less than 50% in assay [1]; less than 30% in assay [2]; 30 to 50% in assay [3]; no less than 50% in assay [4]. Besides, the inhibition at 10 µM in the assay with HeLa (cervical cancer) is no less than 50%; in assay [5] it was greater than 80%. Also, the inhibition at 30 µM (in the assay with SW480 (colon cancer); with HepG2 (liver cancer); in assay [1]; in assay [2]; in assay [3]; in assay [4]) was no less than 50% each time. Also, the inhibition at 30 µM in the assay on HeLa (cervical cancer) was no less than 50%.

Source of the values: patent US20260184663A1, “INDENE COMPOUNDS, PHARMACEUTICAL COMPOSITIONS THEREOF, AND THEIR THERAPEUTIC APPLICATIONS” (NucMito Pharmaceuticals co. Ltd., priority 2022, published 2026).
